Measurements taken from patent US20070249670A1, “Glycogen Phosphorylase Inhibitor Compounds and Pharmaceutical Compositions Thereof” (SMITHKLINE BEECHAM CORPORATION, priority 2004, published 2007).

biological target: T1, human liver glycogen phosphorylase a (HLGPa) (Homo sapiens, UniProt P06737); test: Human liver glycogen phosphorylase a enzymatic activity assay (coupled, fluorescent resorufin readout, with and without 10 mM glucose); assay type: biochemical; conditions: human liver glycogen phosphorylase a enzymatic activity assay
T1 construct: creating a full-length cDNA fused at the 5′ end to codons for methionine-glycine-alanine-histidine; 6xHis tag (leader Met-Gly-Ala-His6-Gly-Gly) (N); made in house; host or cells: E. coli (bacterial expression plasmid pTXK1007LTev)
T1 sequence (P06737 2-847 limits assumed): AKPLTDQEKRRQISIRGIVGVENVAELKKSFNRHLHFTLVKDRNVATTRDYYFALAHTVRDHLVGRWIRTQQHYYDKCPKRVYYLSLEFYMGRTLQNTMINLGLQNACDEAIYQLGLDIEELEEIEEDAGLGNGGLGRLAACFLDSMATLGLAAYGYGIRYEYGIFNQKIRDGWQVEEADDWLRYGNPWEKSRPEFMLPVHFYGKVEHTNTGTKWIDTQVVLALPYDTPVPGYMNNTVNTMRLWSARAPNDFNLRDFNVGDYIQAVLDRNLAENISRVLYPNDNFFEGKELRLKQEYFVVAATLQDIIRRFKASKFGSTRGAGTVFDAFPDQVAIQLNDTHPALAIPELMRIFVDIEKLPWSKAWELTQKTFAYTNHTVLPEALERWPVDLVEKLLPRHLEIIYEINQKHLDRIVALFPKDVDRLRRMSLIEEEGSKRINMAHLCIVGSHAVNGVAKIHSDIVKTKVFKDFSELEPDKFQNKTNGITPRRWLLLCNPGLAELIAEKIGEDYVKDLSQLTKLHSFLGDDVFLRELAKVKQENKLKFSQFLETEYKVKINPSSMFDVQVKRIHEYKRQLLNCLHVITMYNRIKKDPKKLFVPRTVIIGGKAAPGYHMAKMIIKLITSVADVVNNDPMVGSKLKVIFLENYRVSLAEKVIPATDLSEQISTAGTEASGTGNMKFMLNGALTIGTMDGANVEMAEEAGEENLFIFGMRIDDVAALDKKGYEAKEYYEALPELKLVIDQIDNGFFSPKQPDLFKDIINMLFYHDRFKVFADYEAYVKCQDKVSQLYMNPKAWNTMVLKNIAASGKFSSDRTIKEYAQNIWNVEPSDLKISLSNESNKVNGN

IC50	Compound
340 nM	COc1ccc(-c2cc(NC(=O)Nc3c(C)cc(C)cc3C)c(C(=O)NC3(C(=O)O)CC3)s2)cc1 [Example 449, 1-({[5-[4-(methyloxy)phenyl]-3-({[(2,4,6-trimethylphenyl)amino]carbonyl}amino)-2-thienyl]carbonyl}amino)cyclopropanecarboxylic acid]
250 nM	COc1ccc(-c2cc(NC(=O)Nc3c(C)cc(C)cc3C)c(C(=O)NC3(C(=O)O)CCC3)s2)cc1 [Example 450, 1-({[5-[4-(methyloxy)phenyl]-3-({[(2,4,6-trimethylphenyl)amino]carbonyl}amino)-2-thienyl]carbonyl}amino)cyclobutanecarboxylic acid]
47 nM	COc1ccc(-c2cc(NC(=O)Nc3c(C)cc(C)cc3C)c(C(=O)NC3(C(=O)O)CCCC3)s2)cc1 [Example 451, 1-({[5-[4-(methyloxy)phenyl]-3-({[(2,4,6-trimethylphenyl)amino]carbonyl}amino)-2-thienyl]carbonyl}amino)cyclopentanecarboxylic acid]
3 nM	COc1ccc(-c2cc(NC(=O)Nc3c(C)cc(C)cc3C)c(C(=O)NC3(C(=O)O)CCCCC3)s2)cc1 [Example 452, 1-({[5-[4-(methyloxy)phenyl]-3-({[(2,4,6-trimethylphenyl)amino]carbonyl}amino)-2-thienyl]carbonyl}amino)cyclohexanecarboxylic acid]
4 nM	COc1ccc(-c2cc(NC(=O)Nc3c(C)cc(C)cc3C)c(C(=O)NC3(C(=O)O)CCCCCC3)s2)cc1 [Example 453, 1-({[5-[4-(methyloxy)phenyl]-3-({[(2,4,6-trimethylphenyl)amino]carbonyl}amino)-2-thienyl]carbonyl}amino)cycloheptanecarboxylic acid]
1 nM	COc1ccc(-c2cc(NC(=O)Nc3c(C)cc(C)cc3C)c(C(=O)NC3(C(=O)O)CCCCCCC3)s2)cc1 [Example 454, 1-({[5-[4-(methyloxy)phenyl]-3-({[(2,4,6-trimethylphenyl)amino]carbonyl}amino)-2-thienyl]carbonyl}amino)cyclooctanecarboxylic acid]
86 nM	O=C(Nc1cc2ccccc2cc1C(=O)N[C@H](C(=O)O)C1CCCCC1)Nc1c(Cl)cc(F)cc1Cl [Example 455, (2S)-cyclohexyl({[3-({[(2,6-dichloro-4-fluorophenyl)amino]carbonyl}amino)-2-naphthalenyl]carbonyl}amino)ethanoic acid]
230 nM	C[C@](NC(=O)c1cc2ccccc2cc1NC(=O)Nc1c(Cl)cc(Cl)cc1Cl)(C(=O)O)C1CCCCC1 [Example 456, 2-cyclohexyl-N-{[3-({[(2,4,6-trichlorophenyl)amino]carbonyl}amino)-2-naphthalenyl]carbonyl}-L-alanine]
64 nM	Cc1cc(C)c(CC(=O)Nc2cc3ccccc3cc2C(=O)N[C@H](C(=O)O)C2CCCCC2)c(C)c1 [Example 457, (2S)-cyclohexyl{[(3-{[(2,4,6-trimethylphenyl)acetyl]amino}-2-naphthalenyl)carbonyl]amino}ethanoic acid]
220 nM	Cc1cc(Br)cc(C)c1NC(=O)Nc1cc2ccccc2cc1C(=O)N[C@H](C(=O)O)C1CCCCC1 [Example 458, (2S)-({[3-({[(4-bromo-2,6-dimethylphenyl)amino]carbonyl}amino)-2-naphthalenyl]carbonyl}amino)(cyclohexyl)ethanoic acid]
180 nM	O=C(Cc1c(Cl)ccc(Cl)c1Cl)Nc1cc2ccccc2cc1C(=O)N[C@H](C(=O)O)C1CCCCC1 [Example 459, (2S)-cyclohexyl{[(3-{[(2,3,6-trichlorophenyl)acetyl]amino}-2-naphthalenyl)carbonyl]amino}ethanoic acid]
2 nM	CCc1cc(C)c(NC(=O)Nc2cc3ccccc3cc2C(=O)N[C@H](C(=O)O)C2CCCCC2)c(C)c1 [Example 460, (2S)-cyclohexyl({[3-({[(4-ethyl-2,6-dimethylphenyl)amino]carbonyl}amino)-2-naphthalenyl]carbonyl}amino)ethanoic acid]
6 nM	C[C@](NC(=O)c1cc2ccccc2cc1NC(=O)Nc1c(Cl)cc(OC(F)(F)F)cc1Cl)(C(=O)O)C1CCCCC1 [Example 465, 2-cyclohexyl-N-[(3-{[({2,6-dichloro-4-[(trifluoromethyl)oxy]phenyl}amino)carbonyl]amino}-2-naphthalenyl)carbonyl]-L-alanine]
13 nM	O=C(Nc1cc2ccccc2cc1C(=O)NC(C(=O)O)[C@H]1CC[C@H](C(F)(F)F)CC1)Nc1c(Cl)cc(OC(F)(F)F)cc1Cl (stereo partly drawn) [Example 466, {[(3-{[({2,6-dichloro-4-[(trifluoromethyl)oxy]phenyl}amino)carbonyl]amino}-2-naphthalenyl)carbonyl]amino}[trans-4-(trifluoromethyl)cyclohexyl]acetic acid]
35 nM	O=C(Nc1cc2ccccc2cc1C(=O)NC(C(=O)O)[C@H]1CC[C@@H](C(F)(F)F)CC1)Nc1c(Cl)cc(OC(F)(F)F)cc1Cl (stereo partly drawn) [Example 467, {[(3-{[({2,6-dichloro-4-[(trifluoromethyl)oxy]phenyl}amino)carbonyl]amino}-2-naphthalenyl)carbonyl]amino}[cis-4-(trifluoromethyl)cyclohexyl]acetic acid]
15 nM	O=C(Nc1cc2ccccc2cc1C(=O)NC(C(=O)O)C1CCOCC1)Nc1c(Cl)cc(OC(F)(F)F)cc1Cl (centres unmarked) [Example 468, {[(3-{[({2,6-dichloro-4-[(trifluoromethyl)oxy]phenyl}amino)carbonyl]amino}-2-naphthalenyl)carbonyl]amino}(tetrahydro-2H-pyran-4-yl)acetic acid]
2 nM	CCCc1cc(C)c(NC(=O)Nc2cc3ccccc3cc2C(=O)N[C@H](C(=O)O)C2CCCCC2)c(C)c1 [Example 470, (2S)-cyclohexyl({[3-({[(2,6-dimethyl-4-propylphenyl)amino]carbonyl}amino)-2-naphthalenyl]carbonyl}amino)ethanoic acid]
3 nM	C#CCc1cc(C)c(NC(=O)Nc2cc3ccccc3cc2C(=O)N[C@H](C(=O)O)C2CCCCC2)c(C)c1 [Example 471, (2S)-cyclohexyl[({3-[({[2,6-dimethyl-4-(2-propyn-1-yl)phenyl]amino}carbonyl)amino]-2-naphthalenyl}carbonyl)amino]ethanoic acid]
160 nM	Cc1cc(C)c(NC(=O)Nc2cc(F)ccc2C(=O)N[C@@](C)(C(=O)O)C2CCCCC2)c(C)c1 [Example 472, 2-cyclohexyl-N-{[4-fluoro-2-({[(2,4,6-trimethylphenyl)amino]carbonyl}amino)phenyl]carbonyl}-L-alanine]
1 nM	CCCOc1cc(C)c(NC(=O)Nc2cc3ccccc3cc2C(=O)N[C@H](C(=O)O)C2CCCCC2)c(C)c1 [Example 473, (2S)-cyclohexyl[({3-[({[2,6-dimethyl-4-(propyloxy)phenyl]amino}carbonyl)amino]-2-naphthalenyl}carbonyl)amino]ethanoic acid]
145 nM	C[C@](NC(=O)c1ccc(F)cc1NC(=O)Nc1c(Cl)cc(OC(F)(F)F)cc1Cl)(C(=O)O)C1CCCCC1 [Example 474, 2-cyclohexyl-N-[(2-{[({2,6-dichloro-4-[(trifluoromethyl)oxy]phenyl}amino)carbonyl]amino}-4-fluorophenyl)carbonyl]-L-alanine]
51 nM	CCc1cc(C)c(NC(=O)Nc2cc(F)ccc2C(=O)N[C@H](C(=O)O)C2CCCCC2)c(C)c1 [Example 475, (2S)-cyclohexyl({[2-({[(4-ethyl-2,6-dimethylphenyl)amino]carbonyl}amino)-4-fluorophenyl]carbonyl}amino)ethanoic acid]
30 nM	C=CCc1cc(C)c(NC(=O)Nc2cc(F)ccc2C(=O)N[C@H](C(=O)O)C2CCCCC2)c(C)c1 [Example 476, (2S)-cyclohexyl[({2-[({[2,6-dimethyl-4-(2-propen-1-yl)phenyl]amino}carbonyl)amino]-4-fluorophenyl}carbonyl)amino]ethanoic acid]
8 nM	CCCc1cc(C)c(NC(=O)Nc2cc(F)ccc2C(=O)N[C@H](C(=O)O)C2CCCCC2)c(C)c1 [Example 477, (2S)-cyclohexyl({[2-({[(2,6-dimethyl-4-propylphenyl)amino]carbonyl}amino)-4-fluorophenyl]carbonyl}amino)ethanoic acid]
3 nM	CCCCCc1cc(C)c(NC(=O)Nc2cc(F)ccc2C(=O)N[C@H](C(=O)O)C2CCCCC2)c(C)c1 [Example 478, (2S)-cyclohexyl({[2-({[(2,6-dimethyl-4-pentylphenyl)amino]carbonyl}amino)-4-fluorophenyl]carbonyl}amino)ethanoic acid]
4 nM	CCCc1cc(C)c(NC(=O)Nc2cc(F)ccc2C(=O)N[C@@](C)(C(=O)O)C2CCCCC2)c(C)c1 [Example 479, 2-cyclohexyl-N-{[2-({[(2,6-dimethyl-4-propylphenyl)amino]carbonyl}amino)-4-fluorophenyl]carbonyl}-L-alanine]
